# Measurements: patent US4029789A, “1-[2'-(α-Furoyl or α-thienoyl)eth-1'-yl]-2-(4"-cinnamyl piperazin-1"-yl methyl)benzimidazoles and method of using same” (Delalande S.A., priority 1974, dated 1977)
# “Also recorded” adds a separate entry of the source. Read-outs that look alike come from different tables or passages of the source.
# Columns and labels:
# constraint ulcers = assay: Constraint ulcers, rat, 7 hours; assay type: in vivo
# Procedure: (a) Constraint ulcers: the compounds of formula (I), administered orally, reduce the area of ulcerations caused in a rat placed under constraint. Thus, compound No 73 0466 administered at a dose of 5 mg/kg/po, reduces by 78% the area of the ulcerations caused by being put under constraint for 7 hours.
# (§1) .- The anti-ulcerous activity was evaluated by the percentage of protection (quantal response) against ulcers caused in a rat by binding the pylorus or by putting under constraint for 7 hours.
# (§2) The products were administered intraduodenally (Shay's ulcer) or orally (constraint ulcer).
# gastric secretion [1] = assay: Gastric antisecretory activity, vigil rat, pyloric binding for 4 hours; assay type: in vivo; conditions: for ED50: Rattus norvegicus, 4 h, i.d.; for gastric antisecretory properties (in words): comparison with compound No. 7110 / patent No 3 862 177
# Procedure: .- The gastric antisecretory activity was studied in a vigil rat fitted with a pyloric binding for 4 hours, according to Shay and al.
# It was evaluated by diminutions in the volume, the concentration and the flow of free acid in the gastric juice. The compounds tested were administered intraduodenally.
# [2] = system: bronchoconstriction caused by acetylcholine; assay: Anti-bronchoconstriction, anaesthetized guinea-pig, acetylcholine i.v. (Konzett and Rossler); assay type: in vivo; conditions: for ED50: Cavia porcellus, iv, compound i.v., read-out: DE 50 (the source's name); for activity by route of administration: i.v. and i.d.; for anti-bronchoconstriction properties (in words): guinea-pig, comparison with compound of patent No 3 862 177
# Procedure: (§3) Injected intravenously or intraduodenally, the compounds of formula (I) are capable of opposing bronchoconstriction caused in a guinea-pig anaesthetized with ethylurethane at 20 % (1.5 g/kg intraperitoneally) by intravenous injection of histamine ([…]/i.v.), of acetylcholine (40 μg/kg/i.v.), of bradykinine (5 μg/kg/i.v.) or of serotinine (20 μg/kg/i.v.).
# (§4) .- The anti-bronchoconstriction properties were studied in an anaesthetized guinea-pig and in a vigil guinea-pig.
# (§5) The antagonism exercised by the products studied to a bronchoconstriction due to an intravenous injection of acetylcholine, histamine or bradykinine was evaluated according to Konzett and Rossler's method.
# (§6) The products studied were administered intraduodenally or intravenously.
# Acute toxicity, mouse = conditions: in vivo
# [3] = system: morphinic respiratory depression; assay: Respiratory analeptic properties, vigil rabbit, morphinic respiratory depression; assay type: in vivo; conditions: for respiratory analeptic activity (in words): i.v., vigil rabbit, comparison with reference compound
# Procedure: The compounds of formula (I) administered intravenously to a vigil rabbit, are capable of opposing morphinic respiratory depression (subcutaneous injection of 50 mg/kg of morphine hydrochloride).
# .- Respiratory analeptic properties were studied in a vigil rabbit subjected to a morphinic respiratory depression. The products studied were administered intravenously.
# Shay's ulcers = assay: Shay's ulcers, rat, binding the pylorus; assay type: in vivo; conditions: for anti-ulcerous properties (in words): comparison with compound No. 7110 / patent No 3 862 177
# Procedure: (b) Shay's ulcers: the compounds of formula (I) administered intraduodenally reduce the area of ulcerations induce in a rat by binding the pylorus. Thus, compound code No 73 0466 administered in a dose of 20 mg/kg/i.d. reduces by 80 % Shay's ulcer.
# as §1, §2
# [4] = system: bronchoconstriction caused by bradykinine; assay: Anti-bronchoconstriction, anaesthetized guinea-pig, bradykinine i.v. (Konzett and Rossler); assay type: in vivo
# Procedure: as §3, §4, §5, §6
# [5] = system: contractural action of histamine on the ileum; assay: Spasmolytic, ileum of guinea-pig, histamine
# Procedure: (§7) Compound code number 73 0457, introduced into the conserving medium, is capable of opposing the contractural action of histamine and bradykinine on the ileum of a guinea-pig, DI 50 being respectively 0.16 μg/ml and 3.1 μg/ml, prevents spasms in the uterus of a female rat induced by serotonine (DI 50= 0.8 μg/ml) and opposes the contracting effect of acetylcholine on the duodenum of a rat (DI 50= 0.8μg/ml).
# [6] = system: bronchoconstriction caused by histamine; assay: Anti-bronchoconstriction, anaesthetized guinea-pig, histamine i.v. (Konzett and Rossler); assay type: in vivo; conditions: for Percentage of inhibition of the bronchoconstriction: histamine
# Procedure: as §3, §4, §5, §6
# [7] = system: bronchoconstriction caused by serotonine; assay: Anti-bronchoconstriction, anaesthetized guinea-pig, serotonine i.v.; assay type: in vivo; conditions: Cavia porcellus, iv, compound i.v., read-out: DE 50 (the source's name)
# Procedure: as §3
# [8] = system: contractural action of bradykinine on the ileum; assay: Spasmolytic, ileum of guinea-pig, bradykinine
# Procedure: as §7
# [9] = system: spasms in the uterus induced by serotonine; assay: Spasmolytic, uterus of female rat, serotonine
# Procedure: as §7
# [10] = system: contracting effect of acetylcholine on the duodenum; assay: Spasmolytic, duodenum of rat, acetylcholine
# Procedure: as §7
# [11] = system: bronchospasm caused by histamine aerosol; assay: Protection of vigil guinea-pig against histamine aerosol bronchospasm; assay type: in vivo
# Procedure: These properties are also observed by administering the compounds of formula (I) orally, to a vigil guinea-pig subjected to a histamine aerosol (exposition for 10 minutes to an aerosol obtained from an aqueous solution containing 0.4 % histamine and 10 % glycerine), the criterium of activity being the total protection from the fall caused by the bronchospasm.
# [12] = system: bronchospasm caused by acetylcholine aerosol; assay: Protection of vigil guinea-pig against acetylcholine aerosol bronchospasm; assay type: in vivo
# gastric secretion [13] = assay: Gastric antisecretory properties, anaesthetized rat with Shay binding; assay type: in vivo; conditions: 2 mg/kg i.d.
# From the text: The compounds of formula (I), administered intraduodenally to an anaesthetized rat provided with a Shay binding are capable of reducing the gastric secretion.
# [14] = read-out: Gastric antisecretory action, Volume, D.E. 50
# [15] = acetylcholine, anaesthetized guinea-pig
# [16] = po, 2000 mg/kg, p.o., 2 000 mg/kg, read-out: Percentage mortality, orally
# [17] = acetylcholine i.v., 25 mg/kg i.d.
compound,measurement,setting,value
"O=C(CCn1c(CN2CCN(CC=Cc3ccccc3)CC2)nc2ccccc21)c1ccccc1 [7 110, reference compound]",ED50,"constraint ulcers; Rattus norvegicus, po, 7 h, p.o., read-out: Anti-ulcerous action, Constraint ulcer for 7 hours, D.E. 50",4.2 mg/kg
same,ED50,gastric secretion [1]; [14],2.5 mg/kg
same,ED50,[2]; acetylcholine i.v.,2.4 mg/kg
same,Anti-bronchoconstriction action,"[2]; acetylcholine i.v., 30 mg/kg i.d.",0
same,activity by route of administration,[2]; [15],acts solely intravenously
same,mortality,"Acute toxicity, mouse; po, 4800 mg/kg, p.o., 4 800 mg/kg, read-out: Acute toxicity (p.o.), percentage mortality",30%
same,Duration of effect,[3]; 4 mg/kg i.v.,0 min
same,"Percentage increase, respiratory amplitude",[3]; 4 mg/kg i.v.,0%
same,"Percentage increase, respiratory frequency",[3]; 4 mg/kg i.v.,0%
same,ED50,"Shay's ulcers; Rattus norvegicus, i.d., read-out: Anti-ulcerous action, Shay's ulcer, D.E. 50",28.5 mg/kg
same,ED50,"[4]; Cavia porcellus, bradykinine i.v., compound i.d., read-out: D.E. 50 (the source's name)",30 mg/kg
"prethcamide [MICORENE, reference compound]",Duration of effect,[3]; 10 mg/kg i.v.,7 min
"O=C(CCn1c(CN2CCN(CC=Cc3ccccc3)CC2)nc2ccccc21)c1ccco1 [73 0457, dimaleate of 1-[2'-(α-furoyl)eth-1' yl]-2-(4""-cinnamylpiperazin 1"" ylmethyl) benzimidazole]",DI 50,[5],0.16 µg/mL
same,Percentage of inhibition of the bronchoconstriction,[6]; 12.5 mg/kg i.d.,100%
same,ED50,"gastric secretion [1]; read-out: Gastric antisecretory action, Free acid concentration, D.E. 50",55 mg/kg
same,ED50,"gastric secretion [1]; read-out: Gastric antisecretory action, Free acid flow, D.E. 50",15 mg/kg
same,ED50,gastric secretion [1]; [14],11.5 mg/kg
same,gastric antisecretory properties (in words),gastric secretion [1],lower gastric antisecretory and anti-ulcerous activities
same,ED50,[7],< 4 mg/kg
same,DI 50,[8],3.1 µg/mL
same,ED50,[2]; acetylcholine i.v.,< 4 mg/kg
same,"Anti-bronchoconstriction action, percentage","[2]; acetylcholine i.v., 0.0625 mg/kg i.v.",63%
same,Percentage of inhibition of the bronchoconstriction,"[2]; acetylcholine, 12.5 mg/kg i.d.",70%
same,Duration,"[2]; acetylcholine, 12.5 mg/kg i.d., Table I",> 90 min
same,Duration,"[2]; acetylcholine, 12.5 mg/kg i.d., Table IV",> 90 min
same,times lower active dose than that of compound No. 7110,[2]; [15],38 times
same,activity by route of administration,[2]; [15],"active in this same test, not only when administered intravenously but intraduodenally"
same,anti-bronchoconstriction properties (in words),[2],considerable anti-bronchoconstriction and respiratory analeptic properties
same,mortality,"Acute toxicity, mouse; iv, 48 mg/kg, i.v., at 48 ± 2.5 mg/kg, read-out: Percentage mortality, intravenously",~50%
same,LD50,"Acute toxicity, mouse; iv, read-out: Dose administered (mouse), intravenously, DE 50",48 ± 2.5 mg/kg
same,mortality,"Acute toxicity, mouse; [16]",0%
same,Duration of effect,[3]; 10 mg/kg i.v.,25 min
same,respiratory analeptic activity (in words),[3],considerable respiratory analeptic activity; also recorded: considerable anti-bronchoconstriction and respiratory analeptic properties
same,"Anti-ulcerous action, Shay's ulcer (percentage of protection, quantal response)",Shay's ulcers; 50 mg/kg i.d.,0
same,anti-ulcerous properties (in words),Shay's ulcers,lower gastric antisecretory and anti-ulcerous activities
same,Percentage of inhibition of the bronchoconstriction,"[4]; bradykinine, 8 mg/kg i.v.",75%
same,DI 50,[9],0.8 µg/mL
same,DI 50,[10],0.8 µg/mL
same,percentage of animals totally protected,[11]; 1.56 mg/kg p.o.,50%
same,Duration,[11]; 100 mg/kg p.o.,> 6 h
same,Percentage of inhibition of the bronchoconstriction,[11]; 100 mg/kg p.o.,100%
same,percentage of animals totally protected,[12]; 12.5 mg/kg p.o.,50%
"O=C(CCn1c(CN2CCN(CC=Cc3ccccc3)CC2)nc2ccccc21)c1cccs1 [73 0466, dimaleate of 1-[2'(α -thienoyl)eth-1'yl]-2-(4""-cinnamylpiperazin 1""ylmethyl)benzimidazole]",reduction of the area of the ulcerations,"constraint ulcers; 5 mg/kg p.o., constraint for 7 hours",78%
same,reduction of the volume of the gastric secretion,gastric secretion [13],28%
same,ED50,"[6]; Cavia porcellus, histamine i.v., compound i.d., read-out: D.E. 50 (the source's name)",25 mg/kg
same,Percentage of inhibition of the bronchoconstriction,[6]; 25 mg/kg i.d.,50%
same,"Gastric antisecretory action, Free acid concentration",gastric secretion [1]; 2 mg/kg i.d.,inactive
same,gastric antisecretory properties (in words),gastric secretion [1],lower gastric antisecretory and anti-ulcerous activities
same,"Anti-bronchoconstriction action, percentage",[2]; [17],95%
same,Duration of anti-bronchoconstriction action,[2]; [17],> 30 min
same,Duration,"[2]; acetylcholine, 100 mg/kg i.d.",60 min
same,Percentage of inhibition of the bronchoconstriction,"[2]; acetylcholine, 100 mg/kg i.d.",100%
same,activity by route of administration,[2]; [15],"active in this same test, not only when administered intravenously but intraduodenally"
same,anti-bronchoconstriction properties (in words),[2],considerable anti-bronchoconstriction and respiratory analeptic properties
same,mortality,"Acute toxicity, mouse; [16]",30%
same,respiratory analeptic activity (in words),[3],considerable anti-bronchoconstriction and respiratory analeptic properties
same,reduction of Shay's ulcer (area of ulcerations),Shay's ulcers; 20 mg/kg i.d.,80%
same,anti-ulcerous properties (in words),Shay's ulcers,lower gastric antisecretory and anti-ulcerous activities
same,percentage of animals totally protected,[11]; 50 mg/kg p.o.,67%
same,percentage of animals totally protected,[12]; 50 mg/kg p.o.,100%
